{"source": "paper PMC5218480", "about": "(PLoS ONE, 2017)", "system": "MV-4-11 cells", "experiment": "Gene expression microarray analysis (Affymetrix PrimeView) and GSEA", "assay_type": "cell-based, human", "parameters": "RFU PODN (11730768_x_at) / Fold change /veh PODN (11730768_x_at) / RFU LINC00158 (11744669_a_at) / Fold change /veh LINC00158 (11744669_a_at) / RFU DUSP10 (11751237_a_at) / Fold change /veh DUSP10 (11751237_a_at) / RFU ID3 (11757404_x_at) / Fold change /veh ID3 (11757404_x_at) / RFU PLEKHG5 (11737974_s_at) / Fold change /veh PLEKHG5 (11737974_s_at) / RFU LRRC4B (11730491_at) / Fold change /veh LRRC4B (11730491_at) / RFU GIMAP4 (11747438_a_at) / Fold change /veh GIMAP4 (11747438_a_at) / RFU KRT8 (11758183_x_at) / Fold change /veh KRT8 (11758183_x_at) / RFU CNN1 (11734310_a_at) / Fold change /veh CNN1 (11734310_a_at) / RFU VPS37D (11726825_at) / Fold change /veh VPS37D (11726825_at) / RFU C10orf10 (11716522_x_at) / Fold change /veh C10orf10 (11716522_x_at) / RFU KIR2DL2 /// KIR2DL4 /// KIR2DL5A /// KIR2DL5B /// KIR2DS1 /// KIR2DS2 /// KIR2DS3 /// KIR2DS4 /// KIR3DL3 /// KIR3DL3 /// KIR3DS1 (11738374_at) / Fold change /veh KIR2DL2 /// KIR2DL4 /// KIR2DL5A /// KIR2DL5B /// KIR2DS1 /// KIR2DS2 /// KIR2DS3 /// KIR2DS4 /// KIR3DL3 /// KIR3DL3 /// KIR3DS1 (11738374_at) / RFU C1QL1 (11718748_at) / Fold change /veh C1QL1 (11718748_at) / RFU TMPRSS4 (11747572_a_at) / Fold change /veh TMPRSS4 (11747572_a_at) / RFU HAMP (11756126_x_at) / Fold change /veh HAMP (11756126_x_at) / RFU RNFT2 (11725882_a_at) / Fold change /veh RNFT2 (11725882_a_at) / RFU NR4A2 (11747474_a_at) / Fold change /veh NR4A2 (11747474_a_at) / RFU ABCC12 (11746883_a_at) / Fold change /veh ABCC12 (11746883_a_at) / RFU TMEM136 (11760407_x_at) / Fold change /veh TMEM136 (11760407_x_at) / RFU CLDN22 /// WWC2 (11732394_at) / Fold change /veh CLDN22 /// WWC2 (11732394_at) / RFU HLA-DPB1 (11760878_x_at) / Fold change /veh HLA-DPB1 (11760878_x_at) / RFU SPINT1 (11716480_a_at) / Fold change /veh SPINT1 (11716480_a_at) / RFU GAP43 (11754022_s_at) / Fold change /veh GAP43 (11754022_s_at) / RFU A4GNT (11735810_at) / Fold change /veh A4GNT (11735810_at) / RFU PRB3 (11715151_x_at) / Fold change /veh PRB3 (11715151_x_at) / RFU TUBB4B (11761932_at) / Fold change /veh TUBB4B (11761932_at) / RFU CAPN14 (11732068_a_at) / Fold change /veh CAPN14 (11732068_a_at) / RFU TMCC2 (11721928_a_at) / Fold change /veh TMCC2 (11721928_a_at) / RFU IRGQ (11745062_a_at) / Fold change /veh IRGQ (11745062_a_at) / RFU FAM174B (11720279_a_at) / Fold change /veh FAM174B (11720279_a_at) / RFU TMPRSS4 (11748680_a_at) / Fold change /veh TMPRSS4 (11748680_a_at) / RFU FAM212B (11763350_a_at) / Fold change /veh FAM212B (11763350_a_at) / RFU PLEKHG5 (11743358_a_at) / Fold change /veh PLEKHG5 (11743358_a_at) / RFU ZSCAN30 (11745921_a_at) / Fold change /veh ZSCAN30 (11745921_a_at) / RFU CMKLR1 (11741424_a_at) / Fold change /veh CMKLR1 (11741424_a_at) / RFU LOC101060620 /// MAPK8IP1 (11723275_at) / Fold change /veh LOC101060620 /// MAPK8IP1 (11723275_at) / RFU SPTSSB (11747773_x_at) / Fold change /veh SPTSSB (11747773_x_at) / RFU PRSS12 (11739890_at) / Fold change /veh PRSS12 (11739890_at) / RFU BIN1 (11741810_x_at) / Fold change /veh BIN1 (11741810_x_at) / RFU WNT11 (11732464_a_at) / Fold change /veh WNT11 (11732464_a_at) / RFU C10orf10 (11716521_a_at) / Fold change /veh C10orf10 (11716521_a_at) / RFU C5orf56 (11738089_at) / Fold change /veh C5orf56 (11738089_at) / RFU CYB561 (11721691_x_at) / Fold change /veh CYB561 (11721691_x_at) / RFU ANKRD19P (11752326_a_at) / Fold change /veh ANKRD19P (11752326_a_at) / RFU OR2T12 /// OR2T33 /// OR2T8 (11738714_s_at) / Fold change /veh OR2T12 /// OR2T33 /// OR2T8 (11738714_s_at) / RFU VCAN (11748164_a_at) / Fold change /veh VCAN (11748164_a_at) / RFU JSRP1 (11732532_at) / Fold change /veh JSRP1 (11732532_at) / RFU KRTAP10-11 (11738290_x_at) / Fold change /veh KRTAP10-11 (11738290_x_at) / RFU MYO3A (11730013_a_at) / Fold change /veh MYO3A (11730013_a_at) / RFU EBF3 (11725865_a_at) / Fold change /veh EBF3 (11725865_a_at) / RFU CAMK2N1 (11719241_x_at) / Fold change /veh CAMK2N1 (11719241_x_at) / RFU C5orf56 (11738088_a_at) / Fold change /veh C5orf56 (11738088_a_at) / RFU OLFML3 (11715873_a_at) / Fold change /veh OLFML3 (11715873_a_at) / RFU LOC100653217 /// NTM (11731650_a_at) / Fold change /veh LOC100653217 /// NTM (11731650_a_at) / RFU MAPK11 (11762145_a_at) / Fold change /veh MAPK11 (11762145_a_at) / RFU FIZ1 (11724087_x_at) / Fold change /veh FIZ1 (11724087_x_at) / RFU OASL (11726364_x_at) / Fold change /veh OASL (11726364_x_at) / RFU SOX15 (11748057_x_at) / Fold change /veh SOX15 (11748057_x_at) / RFU CD79A (11719716_a_at) / Fold change /veh CD79A (11719716_a_at) / RFU HIST1H1D (11736915_at) / Fold change /veh HIST1H1D (11736915_at) / RFU CASKIN2 (11723855_a_at) / Fold change /veh CASKIN2 (11723855_a_at) / RFU LOC730098 (11760151_x_at) / Fold change /veh LOC730098 (11760151_x_at) / RFU OR4N2 (11742367_at) / Fold change /veh OR4N2 (11742367_at) / RFU PRRT2 (11749266_a_at) / Fold change /veh PRRT2 (11749266_a_at) / RFU SNX32 (11753110_a_at) / Fold change /veh SNX32 (11753110_a_at) / RFU CDHR5 (11726645_a_at) / Fold change /veh CDHR5 (11726645_a_at) / RFU RCAN1 (11760418_a_at) / Fold change /veh RCAN1 (11760418_a_at) / RFU FAM167A (11723789_a_at) / Fold change /veh FAM167A (11723789_a_at) / RFU FAM26E (11764081_at) / Fold change /veh FAM26E (11764081_at) / RFU ISYNA1 (11749810_s_at) / Fold change /veh ISYNA1 (11749810_s_at) / RFU ACY1 (11761880_at) / Fold change /veh ACY1 (11761880_at) / RFU 11764098_at / Fold change /veh 11764098_at / RFU SAMD14 (11745864_x_at) / Fold change /veh SAMD14 (11745864_x_at) / RFU NPB (11741838_a_at) / Fold change /veh NPB (11741838_a_at) / RFU TMPRSS6 (11731388_a_at) / Fold change /veh TMPRSS6 (11731388_a_at) / RFU KRTAP10-2 (11738614_at) / Fold change /veh KRTAP10-2 (11738614_at) / RFU ARHGAP8 /// PRR5-ARHGAP8 (11727945_x_at) / Fold change /veh ARHGAP8 /// PRR5-ARHGAP8 (11727945_x_at) / RFU KRTAP5-7 /// NADSYN1 (11734609_at) / Fold change /veh KRTAP5-7 /// NADSYN1 (11734609_at) / RFU RASL12 (11751679_a_at) / Fold change /veh RASL12 (11751679_a_at) / RFU CDKN2B (11736163_a_at) / Fold change /veh CDKN2B (11736163_a_at) / RFU PRF1 (11729649_at) / Fold change /veh PRF1 (11729649_at) / RFU, ZNF638 /// ZNF638-IT1 / Fold change vs veh, ZNF638 /// ZNF638-IT1 / RFU, PANK3 / Fold change vs veh, PANK3 / RFU, SH3YL1 / Fold change vs veh, SH3YL1 / RFU, ZEB2 / Fold change vs veh, ZEB2 / RFU, NRIP1 / Fold change vs veh, NRIP1 / RFU, PTTG1IP / Fold change vs veh, PTTG1IP / RFU, CAPN2 / Fold change vs veh, CAPN2 / RFU, MED14 / Fold change vs veh, MED14 / RFU, SNORA58 / Fold change vs veh, SNORA58 / RFU, C1orf63 / Fold change vs veh, C1orf63 / RFU, LRRFIP1 / Fold change vs veh, LRRFIP1 / RFU, NDUFAF7 / Fold change vs veh, NDUFAF7 / RFU, SLC12A2 / Fold change vs veh, SLC12A2 / RFU, IBTK / Fold change vs veh, IBTK / RFU, ESF1 / Fold change vs veh, ESF1 / Fold change vs veh, TMEM50B / RFU, TAOK1 / Fold change vs veh, TAOK1 / RFU, ACBD3 / Fold change vs veh, ACBD3 / RFU, TMA16 / Fold change vs veh, TMA16 / RFU, RWDD3 / Fold change vs veh, RWDD3 / RFU, BCAT1 / Fold change vs veh, BCAT1 / RFU, EDEM3 / Fold change vs veh, EDEM3 / RFU, TMEM33 / Fold change vs veh, TMEM33 / RFU, WDR75 / Fold change vs veh, WDR75 / RFU, AHCTF1 / Fold change vs veh, AHCTF1 / RFU, TFRC / Fold change vs veh, TFRC / RFU, ZDHHC17 / Fold change vs veh, ZDHHC17 / RFU, NOM1 / Fold change vs veh, NOM1 / RFU, ARL8B / Fold change vs veh, ARL8B / RFU, ZBTB11 / Fold change vs veh, ZBTB11 / RFU, TAMM41 / Fold change vs veh, TAMM41 / RFU, KIAA1704 /// LOC100996395 / Fold change vs veh, KIAA1704 /// LOC100996395 / RFU, ING1 / Fold change vs veh, ING1 / RFU, TRMT61B / Fold change vs veh, TRMT61B / RFU, FUBP3 / Fold change vs veh, FUBP3 / RFU, TP53 / Fold change vs veh, TP53 / RFU, TNKS2 / Fold change vs veh, TNKS2 / RFU, ZFP14 / Fold change vs veh, ZFP14 / RFU, ACTR2 / Fold change vs veh, ACTR2 / RFU, PPP3R1 / Fold change vs veh, PPP3R1 / RFU, PIK3R1 / Fold change vs veh, PIK3R1 / RFU, HNRNPA1 / Fold change vs veh, HNRNPA1 / RFU, RNF170 / Fold change vs veh, RNF170 / RFU, ZNF28 / Fold change vs veh, ZNF28 / RFU, RNGTT / Fold change vs veh, RNGTT / RFU, OGT / Fold change vs veh, OGT / RFU, BRD1 / Fold change vs veh, BRD1 / RFU, MARS / Fold change vs veh, MARS / RFU, ZNF655 / Fold change vs veh, ZNF655 / RFU, FAHD1 / Fold change vs veh, FAHD1 / RFU, BDP1 / Fold change vs veh, BDP1 / RFU, LRRCC1 / Fold change vs veh, LRRCC1 / RFU, ARID1A / Fold change vs veh, ARID1A / RFU, ZNF146 / Fold change vs veh, ZNF146 / RFU, ZNF330 / Fold change vs veh, ZNF330 / RFU, GPN3 / Fold change vs veh, GPN3 / RFU, C9orf123 / Fold change vs veh, C9orf123 / RFU, N4BP2L2 / Fold change vs veh, N4BP2L2 / RFU, ARFIP1 / Fold change vs veh, ARFIP1 / RFU, FAM179B / Fold change vs veh, FAM179B / RFU, BCL10 / Fold change vs veh, BCL10 / RFU, UHRF1BP1L / Fold change vs veh, UHRF1BP1L / RFU, BET1 / Fold change vs veh, BET1 / RFU, CNOT2 / Fold change vs veh, CNOT2 / RFU, ZNF268 / Fold change vs veh, ZNF268 / Fold change vs veh, ZNF507 / RFU, DGCR2 / Fold change vs veh, DGCR2 / RFU, WDSUB1 / Fold change vs veh, WDSUB1 / Fold change vs veh, HSP90B1 /// MIR3652 / RFU, ADSS / Fold change vs veh, ADSS / RFU, GK / Fold change vs veh, GK / RFU, ZNF148 / Fold change vs veh, ZNF148 / RFU, TAF9 / Fold change vs veh, TAF9 / RFU, SLC1A5 / Fold change vs veh, SLC1A5 / RFU, SLMO2 / Fold change vs veh, SLMO2 / RFU, ABCC4 / Fold change vs veh, ABCC4 / RFU, LOC101060439 /// RAP1B / Fold change vs veh, LOC101060439 /// RAP1B / RFU, RFX7 / Fold change vs veh, RFX7 / RFU, GTPBP10 / Fold change vs veh, GTPBP10 / RFU, CNEP1R1 / Fold change vs veh, CNEP1R1 / RFU, BIVM-ERCC5 /// ERCC5 / Fold change vs veh, BIVM-ERCC5 /// ERCC5 / RFU, ILF3 / Fold change vs veh, ILF3 / RFU 11762660_at / Fold change /veh 11762660_at / RFU VCAN (11757783_s_at) / Fold change /veh VCAN (11757783_s_at) / RFU DDX43 (11728927_at) / Fold change /veh DDX43 (11728927_at) / RFU KRT8 (11758188_x_at) / Fold change /veh KRT8 (11758188_x_at) / RFU NKD1 (11759106_at) / Fold change /veh NKD1 (11759106_at) / RFU SRD5A1 (11742802_a_at) / Fold change /veh SRD5A1 (11742802_a_at) / RFU TPSAB1 /// TPSB2 (11721975_s_at) / Fold change /veh TPSAB1 /// TPSB2 (11721975_s_at) / RFU GSTM3 (11746129_a_at) / Fold change /veh GSTM3 (11746129_a_at) / RFU IL23R (11737362_x_at) / Fold change /veh IL23R (11737362_x_at) / RFU TMEM51 (11727254_a_at) / Fold change /veh TMEM51 (11727254_a_at) / RFU PIWIL2 (11732686_x_at) / Fold change /veh PIWIL2 (11732686_x_at) / RFU ORM1 (11744905_x_at) / Fold change /veh ORM1 (11744905_x_at) / RFU CCDC152 (11743942_at) / Fold change /veh CCDC152 (11743942_at) / RFU ECM1 (11717891_a_at) / Fold change /veh ECM1 (11717891_a_at) / RFU IL23R (11748794_a_at) / Fold change /veh IL23R (11748794_a_at) / RFU TNFAIP8L3 (11732012_x_at) / Fold change /veh TNFAIP8L3 (11732012_x_at) / RFU MBOAT4 (11741988_at) / Fold change /veh MBOAT4 (11741988_at) / RFU 11764193_at / Fold change /veh 11764193_at / RFU TMEM53 (11763286_at) / Fold change /veh TMEM53 (11763286_at) / RFU MAGEB2 (11727129_at) / Fold change /veh MAGEB2 (11727129_at) / RFU TMEM200A (11744735_a_at) / Fold change /veh TMEM200A (11744735_a_at) / RFU CCDC152 (11751479_a_at) / Fold change /veh CCDC152 (11751479_a_at) / RFU FAM211A (11726209_a_at) / Fold change /veh FAM211A (11726209_a_at) / RFU RGS16 (11746705_a_at) / Fold change /veh RGS16 (11746705_a_at) / RFU VCAN (11755009_s_at) / Fold change /veh VCAN (11755009_s_at) / RFU RHOB (11743442_s_at) / Fold change /veh RHOB (11743442_s_at) / RFU RGS16 (11720943_a_at) / Fold change /veh RGS16 (11720943_a_at) / RFU RGS16 (11720944_at) / Fold change /veh RGS16 (11720944_at) / RFU, VPS4B / Fold change vs veh, VPS4B / RFU, CREB1 / Fold change vs veh, CREB1 / RFU, DNAJC13 / Fold change vs veh, DNAJC13 / RFU, GNAQ / Fold change vs veh, GNAQ / RFU, CDK5R1 / Fold change vs veh, CDK5R1 / RFU, ZRANB3 / Fold change vs veh, ZRANB3 / RFU, CUL4A / Fold change vs veh, CUL4A / RFU, CCNY / Fold change vs veh, CCNY / RFU, UFL1 / Fold change vs veh, UFL1 / RFU, COG3 / Fold change vs veh, COG3 / RFU, DIAPH2 / Fold change vs veh, DIAPH2 / RFU, SKA2 / Fold change vs veh, SKA2 / RFU, AFF3 / Fold change vs veh, AFF3 / RFU, LMF1 / Fold change vs veh, LMF1 / RFU, IPO11 / Fold change vs veh, IPO11 / RFU, DFFB / Fold change vs veh, DFFB / RFU, FOXP1 / Fold change vs veh, FOXP1 / RFU, CARD8 / Fold change vs veh, CARD8 / RFU, STRN3 / Fold change vs veh, STRN3 / RFU, ADK / Fold change vs veh, ADK / RFU, RASSF2 / Fold change vs veh, RASSF2 / RFU, WIPF1 / Fold change vs veh, WIPF1 / RFU, LARP1B / Fold change vs veh, LARP1B / RFU, RASA1 / Fold change vs veh, RASA1 / RFU, RB1 / Fold change vs veh, RB1 / RFU, PPFIA1 / Fold change vs veh, PPFIA1 / RFU, MAT2A / Fold change vs veh, MAT2A / RFU, CCT5 / Fold change vs veh, CCT5 / RFU, WDR92 / Fold change vs veh, WDR92 / RFU, CUX1 / Fold change vs veh, CUX1 / RFU, TTC7A / Fold change vs veh, TTC7A / RFU, TMEM135 / Fold change vs veh, TMEM135 / RFU, DEPTOR / Fold change vs veh, DEPTOR / RFU, CPM / Fold change vs veh, CPM / RFU, DNAJB6 / Fold change vs veh, DNAJB6 / RFU, CACNA2D3 / Fold change vs veh, CACNA2D3 / RFU, DTX4 / Fold change vs veh, DTX4 / RFU, TFCP2 / Fold change vs veh, TFCP2 / RFU, GMCL1 /// GMCL1P1 / Fold change vs veh, GMCL1 /// GMCL1P1 / RFU, AEBP2 / Fold change vs veh, AEBP2 / RFU, SNHG1 /// SNORD22 /// SNORD25 /// SNORD26 /// SNORD27 /// SNORD28 /// SNORD29 /// SNORD31 / Fold change vs veh, SNHG1 /// SNORD22 /// SNORD25 /// SNORD26 /// SNORD27 /// SNORD28 /// SNORD29 /// SNORD31 / Fold change (Aza/veh), C12orf56 (ProbeSet 11735607_a_at) / Fold change (ACY-1035/veh), C12orf56 (ProbeSet 11735607_a_at) / Fold change (Aza/veh), FGFR1OP (ProbeSet 11751329_s_at) / Fold change (ACY-1035/veh), FGFR1OP (ProbeSet 11751329_s_at) / Fold change (Aza/veh), VPS36 (ProbeSet 11739960_a_at) / Fold change (ACY-1035/veh), VPS36 (ProbeSet 11739960_a_at) / RFU SYPL1 (11715823_x_at) / Fold change /veh SYPL1 (11715823_x_at) / RFU IGFBP7 (11715501_s_at) / Fold change /veh IGFBP7 (11715501_s_at) / RFU REEP3 (11722064_at) / Fold change /veh REEP3 (11722064_at) / RFU IGLL1 (11728026_x_at) / Fold change /veh IGLL1 (11728026_x_at): dose or concentration left out as unconfirmed", "details": "MV-4-11 cells, 48 hours", "data": [{"smiles": "Nc1ccc(-c2cccs2)cc1NC(=O)c1ccc2c(c1)cc(C1CC1)n2CCN1CCOCC1", "note": "[ACY-1035]", "values": [{"measurement": "Fold change /veh LINC00158 (11744669_a_at)", "result": 1.11}]}]}
